This is an account of results in patent US9040578B2, “Continuous administration of L-dopa, dopa decarboxylase inhibitors, catechol-O-methyl transferase inhibitors and compositions for same” (Neuroderm, Ltd., priority 2010, dated 2015).

For series [1] the following is noted: cited from earlier work; for pH compatibility: check mark; for Solubility: in words.
A short description of series [2]: Histological score of subcutaneous toxicity after 24 h continuous SC LD/CD. Format: in vivo, Pigs. The conditions noted are these: 0.2% added to LD/CD 5.4/1.5% + 1% ascorbate.
In series [3] the target is T1, Tyrosinase (Homo sapiens, UniProt P14679).
T1 sequence (P14679 19-529): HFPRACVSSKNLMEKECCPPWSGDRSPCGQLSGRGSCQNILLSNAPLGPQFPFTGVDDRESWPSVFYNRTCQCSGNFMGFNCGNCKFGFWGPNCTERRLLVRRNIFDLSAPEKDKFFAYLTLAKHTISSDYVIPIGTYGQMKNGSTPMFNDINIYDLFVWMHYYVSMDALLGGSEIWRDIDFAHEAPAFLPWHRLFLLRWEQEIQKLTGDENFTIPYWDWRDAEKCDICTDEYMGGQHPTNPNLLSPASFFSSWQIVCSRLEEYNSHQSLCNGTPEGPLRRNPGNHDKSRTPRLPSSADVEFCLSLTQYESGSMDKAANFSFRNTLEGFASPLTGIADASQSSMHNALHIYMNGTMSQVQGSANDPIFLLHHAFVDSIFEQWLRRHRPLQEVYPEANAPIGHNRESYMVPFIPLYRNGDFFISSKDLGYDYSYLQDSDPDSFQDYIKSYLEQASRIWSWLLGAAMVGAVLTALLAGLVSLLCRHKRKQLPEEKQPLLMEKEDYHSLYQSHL
The conditions noted are these: tyrosinase inhibitor; cited from earlier work.

Series [4] can be described thus: Chemical stability of levodopa formulations with carbidopa (Tables F, G). Format: physicochemical. The conditions noted are these: Table F. Here is the method:
The effect of carbidopa on levodopa formulations was investigated. Levodopa (LD) formulations were prepared with 0, 0.5, 1, 1.5 & 2% by weight carbidopa (CD) and a constant concentration of arginine.
In an additional experiment, LD formulations were prepared with 0, 0.5, 1 & 2% CD and respective concentrations of arginine.

Series [5] in a line: Colour formation of levodopa/arginine solutions in vitro (FIG. 1A). Format: physicochemical. As for the experimental part: FIG. 1 depicts the effect of carbidopa on the stability of levodopa In Vitro and Ex Vivo: A. 6% weight levodopa and arginine solution with various concentrations (2, 1.5, 1, 0.5%) of carbidopa or no carbidopa were tested for physical stability in vitro. […] B. 7% weight percent levodopa and arginine solution, with or without 2% carbidopa by weight, continuously administered in to the subcutaneous tissue of a 5×5 cm fresh, full-thickness pig skin.
In the absence of air (with N2 in the head space) 0.5% CD was sufficient to inhibit this color formation.

The nature of series [6]: Stability of carbidopa formulations with levodopa (Table H). Format: physicochemical. The text has this: The effect of levodopa on the stability of carbidopa was investigated. Table H indicates results.
Series [7] can be described thus: Titration with acetic or lactic acid: pH and physical stability (Table D). Format: physicochemical.

With `O=C([O-])CN(CCN(CC(=O)[O-])CC(=O)O)CC(=O)O.[Na+].[Na+]` [EDTA disodium], the pH compatibility entry in series [1] is “√”.

`C[C@H](CS)C(=O)N1CCC[C@H]1C(=O)O` [Captopril]: the “protection from local toxicity compared to 1% ascorbate alone” value in series [2] is recorded as “did not have a supplementary effect”. In addition, the Solubility entry in series [1] is “Soluble”. The Min required concentration in series [3] is 0.04 mg/mL. Consider `O=C(O)[C@@H](S)[C@@H](S)C(=O)O` [DMSA (succimer)], for which, in series [1], the Solubility result was “Soluble”. In the case of `C[C@@](Cc1ccc(O)c(O)c1)(NN)C(=O)O` [carbidopa], in series [4], the “effect on the chemical stability of levodopa” value is “does not have a significant effect”. Also, the “dark yellow color formation” value in series [5] (6% levodopa/arginine solution, in the presence of air, dose related) is “prevented dark yellow color formation”. For the same compound, the “carbidopa concentration sufficient to inhibit color formation” value in series [5] (absence of air (N2 in the head space)) stood at 0.5%. Also, the “sensitivity of CD to oxidation and degradation” value in series [6] is “more stable in the presence of LD”. Take `O=C([O-])CN(CCN(CC(=O)[O-])CC(=O)[O-])CC(=O)[O-].[Ca+2].[Na+].[Na+]` [EDTA calcium disodium]: in series [2], the “protection from local toxicity compared to 1% ascorbate alone” value is given as “did not have a supplementary effect”. Further, in series [1], the pH compatibility entry is reported as “√”. `CC(C)(S)[C@@H](N)C(=O)O` [DPA (D-penicillamine), D-penicillamine]: the Solubility result in series [1] was “Soluble”.

For `O=C1O[C@H]([C@@H](O)CO)C(O)=C1O` [Ascorbic acid], in series [7], the “reduction of pH as compared to Na-ascorbate” value was 0.1-0.15 units. As to `Cn1cc[nH]c1=S` [Methimazole], the Solubility entry in series [1] is “Soluble”.

Take `N[C@@H](CS)C(=O)O` [L-Cysteine]: in series [1], the Solubility entry was “Soluble”.
